Literature values as cited in US8685965B2, “CGRP receptor antagonists” (Merck Sharp & Dohme Corp., priority 2008, dated 2014).
Ends that are not written are not given here.

Tests used:
[1] = test system: headache induced by CGRP infusion; details: control group; Petersen et al. 2005
facial blood flow [2] = details: marmoset; Doods et al. 2000
[3] = test system: acute attacks of migraine; details: clinical trials; Olesen et al. 2004
facial blood flow [4] = details: rat; Escott et al. 1995
middle meningeal artery = details: rats, prior administration; Williamson et al. 1997

NCCCC[C@H](NC(=O)[C@@H](Cc1cc(Br)c(O)c(Br)c1)NC(=O)N1CCC(N2Cc3ccccc3NC2=O)CC1)C(=O)N1CCN(c2ccncc2)CC1 [BIBN4096BS]
prevention of headache induced by CGRP infusion [1]: able to prevent headache induced by CGRP infusion
effect on increase of facial blood flow after electrical stimulation of the trigeminal ganglion (facial blood flow [2]): could be blocked
efficacy in treating acute attacks of migraine [3]: effective in treating acute attacks of migraine

CGRP(8-37): a peptide CGRP antagonist; fragment of CGRP that lacks seven N-terminal amino acid residues (VTHRLAGLLSRSGGVVKNNFVPTNVGSKAF; ends and bridges not checked; UniProt P06881 90-119, looked up, fragment)
effect on increase of facial blood flow after trigeminal ganglion stimulation (facial blood flow [4]): inhibited
effect on increase of middle meningeal artery diameter after electrical stimulation of the dura mater (middle meningeal artery): blocked
